As a reminder, the inhibition is the change of the read-out against control, counted positive when it falls.

The target in one data set is T1, PGH1 synthase (Ovis aries, UniProt P05979).
T1 construct: the purified enzyme from ram seminal vesicles PGH1 synthase; purchased Cayman Chemical Co., Ann Arbor, Mich; host or cells: ram seminal vesicles (tissue-purified)
T1 sequence (P05979 25-600): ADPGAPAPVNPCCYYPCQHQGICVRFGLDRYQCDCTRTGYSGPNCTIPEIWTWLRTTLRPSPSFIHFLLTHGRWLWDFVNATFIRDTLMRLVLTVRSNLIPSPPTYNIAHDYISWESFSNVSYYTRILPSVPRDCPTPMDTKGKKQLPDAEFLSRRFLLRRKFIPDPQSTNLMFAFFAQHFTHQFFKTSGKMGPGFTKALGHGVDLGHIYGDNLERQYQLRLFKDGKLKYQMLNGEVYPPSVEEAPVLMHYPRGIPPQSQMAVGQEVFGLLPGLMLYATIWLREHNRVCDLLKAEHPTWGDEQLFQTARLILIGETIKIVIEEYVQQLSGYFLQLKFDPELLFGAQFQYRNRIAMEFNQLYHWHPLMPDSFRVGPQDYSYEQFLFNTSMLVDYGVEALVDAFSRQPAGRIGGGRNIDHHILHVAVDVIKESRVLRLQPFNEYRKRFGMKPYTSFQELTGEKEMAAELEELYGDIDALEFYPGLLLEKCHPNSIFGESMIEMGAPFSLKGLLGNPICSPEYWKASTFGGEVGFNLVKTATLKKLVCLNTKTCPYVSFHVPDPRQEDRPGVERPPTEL
Description: COX activity (conversion of AA to PGE2). Format: biochemical, ram. The note with it: 10^−6 M. As to the method: Reaction mixtures were incubated at 37° C. for 2 min before the addition of AA and for 2 min thereafter. All samples were run in duplicate. Amounts of PGE2 were determined by EIA after 100-400 times dilution with Tris buffer.

In data set [1] the test system is rats with SAH. As to the kind of experiment: Effect on rCBF when given after SAH has been established. It counts as in vivo, rat. The note with it: 1 mg/kg i.v. 30 min after induction of SAH. The protocol:
(§1) Animals. Experiments were performed on male Sprague-Dawley rats (9-12 weeks old), purchased from Harlan Sprague-Dawley, Inc. (Indianapolis, Ind.). The rats were housed in an Animal Care Facility at the Medical College of Wisconsin, which is approved by the American Association for the Accreditation of Laboratory Animal Care. All protocols involving animals received approval by the Animal Care Committee of the Medical College of Wisconsin.
Surgical preparation. Rats were anesthetized with ketamine (Ketaject® 20 mg/kg i.m.) and thiobutabarbital sodium (Inactin® 50 mg/kg i.p.). […] Endtidal partial pressure of carbon dioxide (pCO2) was controlled at 38 mmHg by adjusting the minute ventilation according to the reading of an CO2 analyzer (Capstar-100 IITC, Inc., Woodland Hills, Calif.). Blood samples were collected at the beginning and end of the experiment and analyzed using a blood gas analyzer (ABL 300, Radiometer, Copenhagen, Denmark) to validate the endtidal pCO2 readings. […]
(§2) Cerebral blood flow (CBF) was continuously measured using laser Doppler flowmetry through a thinned cranial window. […] A PF 103 laser Doppler flow (LDF) probe was positioned over the cranial window and CBF was monitored using a PF-3 laser Doppler flowmeter (Perimed, Stockholm, Sweden).
0.3 ml of blood was injected into the Cistema Magna of rats to induce SAH. […] The CBF data are expressed as percentage change from control.

For data set [2], the system named is rats with SAH. As to the kind of experiment: Effect on rCBF after SAH, drug given before SAH. It counts as in vivo, rat. The note with it: rats pretreated before SAH, 17-ODYA 1.5 nmol intrathecally. As to the method: as §1
(§3) Surgical preparation. Rats were anesthetized with ketamine (Ketaject® 20 mg/kg i.m.) and thiobutabarbital sodium (Inactin® 50 mg/kg i.p.). A cannula was placed in the trachea and the rats were artificially ventilated using a small animal ventilator (SAR-830, CWE, Inc., Ardmore, Pa.) with a mixture of 30% O2 in N2. The femoral vein was cannulated for the infusion of drug and the rats received an i.v. infusion of 0.9% NaCl solution at a rate of […] to replace fluid losses. The femoral artery was cannulated for measurement of mean arterial pressure (MAP) and arterial blood gases. Endtidal partial pressure of carbon dioxide (pCO2) was controlled at 38 mmHg by adjusting the minute ventilation according to the reading of an CO2 analyzer (Capstar-100 IITC, Inc., Woodland Hills, Calif.). Blood samples were collected at the beginning and end of the experiment and analyzed using a blood gas analyzer (ABL 300, Radiometer, Copenhagen, Denmark) to validate the endtidal pCO2 readings. Anesthesia was maintained by administering additional amounts of thiobutabarbital (8 mg/kg i.v.) as needed. Rectal body temperature was maintained at 37±1° C.
Induction of SAH and measurement of cerebral blood flow. SAH was induced by injection of 0.3 ml autologous arterial blood into the Cisterna Magna using a modification of a posterior cranio-cervical approach of a model of SAH. Delgado T J et al., Stroke 16: 595-602 (1985); Solomon R A et al., Stroke 16: 58-64 (1985). The head of the rat was placed in a stereotactic head holder and the atlanto-occipital membrane was exposed by bluntly separating the overlying neck muscles in the midline. The occipital bone and the atlas were visualized. A 30 gauge needle attached to PE-10 was inserted using a stereomicroscope into the Cistema Magna by penetrating the atlanto-occipital membrane. Then, 0.3 ml of freshly drawn unheparinized arterial blood was injected into the Cistema Magna at a rate of 35 μl/min using a syringe pump. This created a massive SAH that was confirmed in all rats at autopsy. Blood was found overlying the cerebello-medullary junction posteriorly and around the basal artery and the vessels of the Circle of Willis.
as §2
Other animals received 17-ODYA (1.5 nmol) or vehicle in a volume of 50 μl that was injected directly into the Cistema Magna using a micromanipulator and a 30 gauge needle. The CBF recorded over the last 5 minutes of the control period immediately before initiation of SAH served as the control value. […] CBF was recorded for 2 min intervals at 10, 20, 30, 60, 90 and 120 minutes after completion of the injection of the blood. The CBF data are expressed as percentage change from control.

Data set [3] relates to EET formation in rat renal microsomes. As to the kind of experiment: EET formation in rat renal microsomes ([3H]-AA, Example 3). The note with it: highest concentration studied, 1,000 ng/ml or 5 μM. It counts as biochemical. As to the method:
All procedure was carried out at 4° C. Renal cortex was pooled from twenty male SHR rats (6 weeks of age). They were homogenized extensively in lysis buffer (20 mM HEPES, pH 7.4, 1 mM EDTA, 100 μM p-(amidinophenyl)metanesulfonyl fluoride and 250 mM sucrose), and centrifuged at 16,000×g for 10 min. Supernatant was further centrifuged at 16,000×g for 30 min. Soluble fraction was collected and centrifuged at 200,000×g for 30 min. The resulting pellet was suspended in 50 mM MOPS buffer.
The reaction was terminated by adding formic acid and acetonitrile to a final concentration of 1% and 50%, respectively.

The nature of data set [4]: Physiological parameters (MAP, endtidal pCO2) during the SAH experiment. The note with it: rats, any time. It counts as in vivo, rat. As to the method: as §3

For `CCCCc1ccc(N=CNO)c(C)c1` [HET0016, N-hydroxy-N′-(4-butyl-2-methylphenyl)-formamidine], at PGH1 synthase, at 1 µM the inhibition was 20%. In addition, the “time after treatment at which cerebral blood flow was back to the control value” with rats with SAH [1] is recorded as 70 min. The “reduction of the initial fall in rCBF at 10 min” value in the data set with rats with SAH [2] (HET0016 10 mg/kg i.v. 30 min prior) is “about 40%”. Also, the “time after induction of SAH within which rCBF recovered fully to values not different from control” value with rats with SAH [2] (HET0016 10 mg/kg i.v.) is no more than 60 min. The EET formation entry in data set [3] is “did not inhibit”. Moreover, in data set [4], the “MAP (blood pressure) versus vehicle” value was “no difference” and the “endtidal pCO2 versus vehicle” value is “no significant differences”.

These data come from patent US7307101B2, “Use of 20-HETE synthesizing enzyme inhibitors as therapy for cerebral vascular disease” (MCW Research Foundation, Inc., priority 2000, dated 2007).
